Assay results: the NIST ThermoML archive (doi:10.1021/je900974u)

Columns and labels:
[1] = molar heat capacity at constant pressure; details: 101.33 kPa, Liquid, Vacuum adiabatic calorimetry
[2] = Molar enthalpy of transition or fusion; details: Crystal; Adiabatic calorimetry
[3] = Crystal

CCCCCCCCCCCCCCn1cc[n+](C)c1.O=S(=O)([N-]S(=O)(=O)C(F)(F)F)C(F)(F)F
[1]
Details | molar heat capacity at constant pressure [J/K/mol]
309.98 K | 896.3
310.38 K | 898
311.13 K | 898.7
312.28 K | 899.5
312.7 K | 900.9
313.43 K | 900.5
314.58 K | 902.3
315.01 K | 903.4
315.73 K | 903.4
316.88 K | 904.2
317.32 K | 905.3
318.04 K | 904
319.19 K | 906.1
319.63 K | 907.1
320.34 K | 907.5
321.49 K | 908.6
321.94 K | 909.6
322.64 K | 909.2
323.79 K | 910.6
324.94 K | 913.1
326.1 K | 913.5
327.25 K | 914.4
328.4 K | 915.1
329.55 K | 915.9
330.69 K | 918.6
331.84 K | 918.3
332.99 K | 919.1
334.14 K | 920.6
335.29 K | 922.4
336.45 K | 923
337.6 K | 924.6
338.75 K | 925.5
339.89 K | 926.2
341.04 K | 927.4
342.19 K | 927.9
343.33 K | 929.9
344.48 K | 930.4
345.62 K | 931.8
346.77 K | 933.1
347.91 K | 933.9
349.06 K | 935.2
350.2 K | 936.7
351.91 K | 939.3
354.21 K | 941.3
356.51 K | 943.4
358.83 K | 945.8
361.14 K | 947.9
363.45 K | 949.8
365.76 K | 951.8
368.07 K | 953.3

Details | Molar enthalpy of transition or fusion [kcal/mol] | Triple point temperature [K]
[2] | 9.536 | –
[3] | – | 308.72

CCCC[N+]1(C)CCCC1.O=S(=O)([N-]S(=O)(=O)C(F)(F)F)C(F)(F)F
[1]
Details | molar heat capacity at constant pressure [J/K/mol]
237.44 K | 546.8
239.5 K | 548
241.39 K | 549
243.28 K | 550.7
245.17 K | 552.2
247.06 K | 553.5
248.95 K | 554.6
250.84 K | 556
252.73 K | 557.3
254.62 K | 558.7
256.51 K | 559.6
258.4 K | 561.5
260.29 K | 562.1
262.04 K | 563.9
262.18 K | 563.5
264.07 K | 565.2
264.1 K | 565.2
265.99 K | 566.6
267.88 K | 567.6
269.77 K | 568.9
271.66 K | 570.2
273.55 K | 571.6
275.44 K | 572.9
277.33 K | 574.2
279.22 K | 575.3
281.11 K | 576.6
283 K | 577.9
284.89 K | 579.2
286.78 K | 580.2
288.67 K | 581.4
290.56 K | 582.8
292.45 K | 584
294.34 K | 585.1
296.23 K | 586.3
298.12 K | 588
300.01 K | 589
301.9 K | 590.6
303.79 K | 591.8
305.68 K | 593
307.57 K | 594.5
309.46 K | 595.6
311.34 K | 596.7
313.23 K | 598.2
315.12 K | 599.6
317.02 K | 600.8
318.92 K | 602.2
320.82 K | 603.4
322.71 K | 604.5
324.61 K | 606.1
326.51 K | 607.5
328.41 K | 608.6
330.31 K | 609.9
332.21 K | 611.4
334.11 K | 612.9
336.01 K | 614.2
337.91 K | 615.4
339.81 K | 616.8
341.72 K | 618.2
343.62 K | 619.5
345.52 K | 621
347.44 K | 622.4
349.34 K | 623.9
351.25 K | 625.2
353.16 K | 626.7
355.06 K | 627.9
356.97 K | 629.2
358.87 K | 630.9
360.78 K | 632.1
362.69 K | 633.7
364.59 K | 635
366.5 K | 636.1
368.4 K | 638

Details | Molar enthalpy of transition or fusion [kcal/mol] | Triple point temperature [K]
[2] | 5.234 | –
[3] | – | 265.65

CCCCn1cc[n+](C)c1.N#CN=C=[N-] [1-butyl-3-methylimidazolium dicyanamide]
[1]
Details | molar heat capacity at constant pressure [J/K/mol]
235.8 K | 355.9
237.81 K | 356.5
239.87 K | 356.9
241.93 K | 357.5
243.99 K | 357.9
246.05 K | 358.6
248.11 K | 359.2
249.31 K | 359.4
250.17 K | 359.8
251.33 K | 360.2
252.23 K | 360.4
253.39 K | 360.8
254.29 K | 360.8
255.46 K | 361.2
256.35 K | 361.4
257.53 K | 362
258.41 K | 362
259.59 K | 362.7
260.48 K | 362.7
261.66 K | 363.3
262.54 K | 363.5
263.72 K | 363.9
264.6 K | 364.1
265.79 K | 364.7
266.66 K | 364.7
267.86 K | 365.3
268.72 K | 365.3
269.92 K | 365.9
270.79 K | 366.1
271.99 K | 366.5
272.85 K | 366.8
274.05 K | 367.2
274.91 K | 367.4
276.12 K | 368
278.19 K | 368.6
280.25 K | 369.4
282.32 K | 370
284.39 K | 370.9
286.45 K | 371.5
288.52 K | 372.3
290.59 K | 372.9
292.65 K | 373.7
294.72 K | 374.5
296.78 K | 375.4
298.85 K | 376.2
300.92 K | 376.8
302.98 K | 377.6
305.05 K | 378.4
307.12 K | 379.1
309.18 K | 379.9
311.25 K | 380.7
313.32 K | 381.5
315.39 K | 382.3
317.46 K | 382.9
319.53 K | 383.8
321.6 K | 384.8
323.67 K | 385.6
325.73 K | 386.4
327.8 K | 387
329.87 K | 388.1
331.94 K | 388.9
334.01 K | 389.7
336.08 K | 390.5
338.15 K | 391.1
340.22 K | 392
342.29 K | 392.8
344.36 K | 393.6
346.43 K | 394.4
348.5 K | 395.5
350.57 K | 396.3
352.65 K | 397.1
354.72 K | 397.9
356.79 K | 398.9
358.86 K | 399.6
360.93 K | 400.6
363 K | 401.4
365.07 K | 402.2
367.14 K | 403.2

Details | Molar enthalpy of transition or fusion [kcal/mol] | Triple point temperature [K]
[2] | 4.254 | –
[3] | – | 270.83

CCCCn1cc[n+](C)c1.O=S(=O)([O-])C(F)(F)F [1-butyl-3-methylimidazolium trifluoromethanesulfonate]
[1]
Details | molar heat capacity at constant pressure [J/K/mol]
292.86 K | 425
294.76 K | 425.9
296.65 K | 427
298.54 K | 427.9
300.43 K | 429.1
302.38 K | 429.6
304.36 K | 431.1
306.35 K | 431.9
308.34 K | 433.1
310.33 K | 434
312.32 K | 435.1
314.31 K | 436.3
316.3 K | 437.1
318.29 K | 438.3
320.27 K | 439.1
322.26 K | 440.6
324.25 K | 441.4
326.24 K | 442.6
328.22 K | 443.8
330.2 K | 444.6
332.19 K | 445.8
334.17 K | 446.9
336.15 K | 447.8
338.13 K | 448.9
340.11 K | 449.8
342.09 K | 451
344.07 K | 452.1
346.05 K | 453.3
348.03 K | 454.3
350 K | 455.5
351.98 K | 456.3
353.96 K | 457.8
355.94 K | 458.6
357.92 K | 459.5
359.89 K | 460.7
361.87 K | 462.1
363.84 K | 463
365.81 K | 464.1
367.78 K | 465

Details | Molar enthalpy of transition or fusion [kcal/mol] | Triple point temperature [K]
[2] | 4.637 | –
[3] | – | 290.98
